In US11166980B2, “Compositions, systems, kits, and methods for treating an infection” (Novan, Inc., priority 2016, dated 2021):
≈ marks a conversion by molar mass, not a printed value. Where two headings read alike, the source gives them in different places.

What was measured:
Type in all cases: cell-based
[1] = test system: Candida albicans; assay: Minimum inhibitory concentration (CLSI)
Procedure: (§1) The minimum inhibitory concentration (MIC) of Nitricil™ NVN1 was determined in vitro for 40 strains of fungi to determine the spectrum of antifungal activity. All MIC testing was conducted in accordance with the Clinical and Laboratory Standards Institute (CLSI) guidelines for antimicrobial testing of yeasts (M27-A2) and filamentous fungi (M38-A2), apart from the lipophilic Malassezia species, which were incubated in supplemented buffered RPMI-1640 medium. The challenge strains were exposed to a series of doubling dilutions of Nitricil™ NVN1 prepared in RPMI-1640 medium in triplicate. Fungal species were also challenged with ketoconazole, prepared in DMSO, as a comparator. Tubes were inoculated with fungal suspensions to a final concentration of 0.5-2.5×10^3 cells/mL for yeasts and 0.4-5.0×10^4 colony-forming units (CFU)/mL, for filamentous fungi. The MIC was determined following a 1- to 4-day incubation period.

[2] = test system: Candida lusitaniae; assay: Minimum inhibitory concentration (CLSI); settings: Clavispora lusitaniae, ATCC200950
Procedure: as §1

[3] = test system: Candida tropicalis; assay: Minimum inhibitory concentration (CLSI); settings: NCPF8760
Procedure: as §1

[4] = test system: Epidermophyton floccosum; assay: Minimum inhibitory concentration (CLSI)
Procedure: as §1

[5] = test system: Fusarium keratoplasticum; assay: Minimum inhibitory concentration (CLSI); settings: ATCC36031
Procedure: as §1

[6] = test system: Fusarium oxysporum; assay: Minimum inhibitory concentration (CLSI); settings: ATCC62705
Procedure: as §1

[7] = test system: Fusarium solani; assay: Minimum inhibitory concentration (CLSI); settings: ATCC56480
Procedure: as §1

[8] = test system: Trichophyton mentagrophytes; assay: Minimum inhibitory concentration (CLSI)
Procedure: as §1

[9] = test system: Trichophyton rubrum; assay: Minimum inhibitory concentration (CLSI)
Procedure: as §1

[10] = test system: Malassezia furfur; assay: Minimum inhibitory concentration (supplemented RPMI-1640)
Procedure: as §1

[11] = test system: 40 strains of fungi; assay: Minimum inhibitory concentration, whole panel
Procedure: as §1
The broad-spectrum antifungal activity of Nitricil™ NVN1 was assessed via growth inhibition experiments against 40 different fungal strains per CLSI M27-A2 and M38-A2 methodology (CLSI, 2008) for assessment of yeasts and filamentous fungi respectively utilizing ketoconazole as the antifungal comparator. […]

## CC(=O)N1CCN(c2ccc(OCC3COC(Cn4ccnc4)(c4ccc(Cl)cc4Cl)O3)cc2)CC1 (centres unmarked) [Ketoconazole, ketoconazole]
[1]; Candida albicans, ATCC10231, strain ATCC #10231, read-out: MIC
  MIC: < 0.063 mg/L
[1]; Candida albicans, ATCC58716, strain ATCC #58716, read-out: MIC
  MIC: 16 mg/L (≈ 30.1 µM)
[1]; Candida albicans, ATCC96901, strain ATCC #96901, read-out: MIC
  MIC: > 32 mg/L
[1]; Candida albicans, strain BLSI #112613Ca1, read-out: MIC
  MIC: > 32 mg/L
[1]; strain BLSI #112613Ca2
  MIC: >32.0 mg/L
[2]
  MIC: < 0.063 mg/L
[3]
  MIC: 32 mg/L (≈ 60.2 µM)
[4]; ATCC38826, strain ATCC #38826, read-out: MIC
  MIC: 4 mg/L (≈ 7.53 µM)
[4]; ATCC44685
  MIC: 0.125 mg/L (≈ 0.235 µM)
[4]; ATCC52061, strain ATCC #52061, read-out: MIC
  MIC: 1 mg/L (≈ 1.88 µM)
[4]; ATCC52063, strain ATCC #52063, read-out: MIC
  MIC: > 32 mg/L
[4]; ATCC52066, strain ATCC #52066, read-out: MIC
  MIC: > 32 mg/L
[4]; NCPF5011, strain NCPF #5011, read-out: MIC
  MIC: > 32 mg/L
[4]; NCPF5012, strain NCPF #5012, read-out: MIC
  MIC: > 32 mg/L
[5]
  MIC: > 32 mg/L
[6]
  MIC: > 32 mg/L
[7]
  MIC: > 32 mg/L
[8]; ATCC9533, strain ATCC #9533, read-out: MIC
  MIC: 1 mg/L (≈ 1.88 µM)
[8]; ATCC18749
  MIC: 0.125 mg/L (≈ 0.235 µM)
[8]; ATCC28939, strain ATCC #28939, read-out: MIC
  MIC: 1 mg/L (≈ 1.88 µM)
[8]; NCPF0224, strain NCPF #0224, read-out: MIC
  MIC: 0.25 mg/L (≈ 0.47 µM)
[8]; NCPF5024, strain NCPF #5024, read-out: MIC
  MIC: 0.5 mg/L (≈ 0.941 µM)
[9]; ATCC10218, strain ATCC #10218, read-out: MIC
  MIC: < 0.063 mg/L
[9]; ATCC22402, strain ATCC #22402, read-out: MIC
  MIC: < 0.063 mg/L
[9]; ATCC28188
  MIC: 0.125 mg/L (≈ 0.235 µM)
[9]; ATCC44697, strain ATCC #44697, read-out: MIC
  MIC: > 32 mg/L
[9]; NCPF0113, strain NCPF #0113, read-out: MIC
  MIC: > 32 mg/L
[9]; NCPF0118, strain NCPF #0118, read-out: MIC
  MIC: < 0.063 mg/L
[9]; NCPF0295, strain NCPF #0295, read-out: MIC
  MIC: > 32 mg/L
[9]; NCPF5025, strain NCPF #5025, read-out: MIC
  MIC: > 32 mg/L
[9]; strain ATCC #MYA-4438, read-out: MIC
  MIC: > 32 mg/L
[10]; ATCC14521, strain ATCC #14521
  MIC: > 32 mg/L
[10]; NCPF3349, strain NCPF #3349
  MIC: > 32 mg/L
[10]; NCPF8211, strain NCPF #8211
  MIC: 16 mg/L (≈ 30.1 µM)
[11]
  fold range of MIC values for all fungal species tested: > 500 fold
